In patent US6034134A, “1-Amino-alkylcyclohexane NMDA receptor antagonists” (Merz + Co. GmbH & Co., priority 1998, dated 2000):
Where a name gives a salt, the structure may show the parent alone. Read-outs that look alike come from different tables or passages of the source.

Experiments:
[1] = Maximal electroshock (MES)-induced convulsions in mice; format: in vivo; settings: for ED50: Mus musculus, ip, 0.5 h, read-out: MES ED50
Protocol: NMR female mice (18-28 g) housed 5 per cage were used for the maximal electroshock (MES) and motor impairment tests. […] All compounds were dissolved in 0.9% saline.
The MES test was performed together with tests for myorelaxant action (traction reflex) and motor coordination (rotarod). For the traction reflex test mice were placed with their forepaws on a horizontal rod and were required to place all 4 paws on the wire within 10 seconds. To test ataxia (motor coordination) mice were placed on rotarod (5 rpm) and were required to remain on the rod for 1 minute. […] These tests were followed by MES (100 Hz, 0.5 second shock duration, 50 mA shock intensity, 0.9 ms impulse duration, Ugo Basile) applied through corneal electrodes. The presence of tonic convulsions was scored (tonic extension of hind paws with minimum angle to the body of 90°). The aim was to obtain ED50 s for all parameters scored (anticonvulsive activity and motor side effects) with use of the Litchfield Wilcoxon test for quantal dose responses. Division of the ED50 for side effects (ataxia or myorelaxation) by the ED50 for antagonism of electroshock convulsions was used as a therapeutic index (TI). […]

[2] = Protocol: All animals were kept with water and food ad libitum under a 12 hour light-dark cycle (light on at 6 a.m.) and at a controlled temperature (20±0.5° C.). All e experiments were performed between 10 a.m. and 5 p.m. Tested agents were injected 30 min. i.p. before the induction of convulsions if not stated otherwise (see below). All compounds were dissolved in 0.9% saline.
cortical neurones = test: Excitotoxicity: glutamate toxicity in cultured cortical neurones (MTT); format: cell-based, rat; settings: Rattus norvegicus, Cortical neurone
Protocol: Cortical neurones were obtained from cerebral cortices of 17/18 day old fetal rats (Wistar), in general following the dissociation procedure described by. After short trypsinization and gentle trituration with fire-polished Pasteur pipettes, the cell suspension was washed by centrifugation. Cells were suspended in serum-free Neurobasal medium with B27 supplement (GIBCO) before plating onto poly-L-lysine (Sigma; 0.2 mg/ml, 20 h, 4° C.) and laminin (Sigma; 2 μg/ml, 1 h, 37° C.)-coated 96-well plates (Falcon, Primaria) at a density of 5×10^4 cells/well. Cortical neurones were maintained at 37° C. in humidified 10% CO2 /90% air. […] The medium was changed first after 4 days in vitro and then every 4 days by replacing 2/3 of the medium with astrocyte-conditioned medium. Cortical neurones between day 12 and 14 in culture were used for the experiments.
New-born rat astrocytes were isolated non-enzymatically according to the method of [24]. Briefly, both hemispheres were dissected from 2-day-old rats, passed through an 80 μm gauze, and triturated with Pasteur pipettes. Cell suspension was made in Dulbecco's modified essential medium (DMEM, Gibco) supplemented with 10% fetal calf serum (FCS, Hyclone), 2 mM glutamine (Gibco) and 50 μg/ml gentamycin and transferred into untreated, plastic culture flasks (Corning; […]). Two days after plating the flasks were shaken for 10 minutes on a rotary platform (150 U/min) to remove microglial cells. The cultures were grown to confluency within 14 days, and the culture medium was changed twice weekly. Thereafter, the glial monolayers were extensively washed with serum-free Neurobasal medium (Gibco) to remove the serum. Flasks were then shaken several times to remove oligodendrocytes and neurones. To obtain conditioned medium from primary astrocytes, the cultures were incubated with fresh Neurobasal medium supplemented with B27 andglutamine. Every 2-3 days the conditioned medium was collected and replaced by fresh medium up to 4 times.
Exposure to EAA was performed in serum-free Neurobasal medium containing 100 μM glutamate and the drug to be tested. After 20 h of incubation, the cytotoxic effect was morphologically examined under a phase contrast microscope and biochemically quantified by measuring cell viability with the MTT test (Promega). This calorimetric assay measures the reduction of a tetrazolium component (MTT) into an insoluble formazan product by the mitochondria of living cells. After incubation of the cortical neurones with the dye solution for approximately 1-4 hours, a solubilization solution was added to lyse the cells and solubilize the colored product (incubation overnight at 37° C., 10% CO2, 90% RH). These samples were then read using an Elisa plate reader (Thermomax, MWG Biotech) at a wavelength of 570 nm. The amount of color produced was directly proportional to the number of viable cells.
(§1) IC50 s in patch clamp, excitotoxicity, and binding studies were calculated according to the four parameter logistic equation using the Grafit computer program (Erithacus Software, England). Ki value for binding studies were then determined according to Cheng and Prusoff. Binding values presented are means±SEM of 3-5 determinations (each performed in duplicate). […] Pearson product moment correlation analysis (Sigma Stat, Jandel Scientific) was used to compare in vitro potencies and in vivo anticonvulsant activity.

NMDA receptor = test: Patch clamp: NMDA-induced inward currents in cultured hippocampal neurones; format: cell-based, rat
Protocol: Hippocampi were obtained from rat embryos (E20 to E21) and were then transferred to calcium and magnesium free Hank's buffered salt solution (Gibco) on ice. Cells were mechanically dissociated in 0.05% DNAase/0.3% ovomucoid (Sigma) following an 8 minute pre-incubation with 0.66% trypsin/0.1% DNAase (Sigma). The dissociated cells were then centrifuged at 18 ×g for 10 minutes, re-suspended in minimum essential medium (Gibco) and plated at a density of 150,000 cells cm^-2 onto poly-L-lysine (Sigma)-precoated plastic petri dishes (Falcon). The cells were nourished with NaHCO3 /HEPES-buffered minimum essential medium supplemented with 5% fetal calf serum and 5% horse serum (Gibco) and incubated at 37° C. with 5% CO2 at 95% humidity. […] Thereafter the medium was exchanged partially twice weekly.
Patch clamp recordings were made from these neurones with polished glass electrodes (4-6 m.OMEGA.) in the whole cell mode at room temperature (20-22° C.) with the aid of an EPC-7 amplifier (List). Test substances were applied by switching channels of a custom-made fast superfusion system with a common outflow (10-20 ms exchange times). The contents of the intracellular solution were as follows (mM): CsCl (120), TEACl (20), EGTA (10), MgCl2 (1), CaCl2 -(0.2), glucose (10), ATP(2), cAMP (0.25); pH was adjusted to 7.3 with CsOH or HC1. The extracellular solutions had the following basic composition (mM): NaCl (140), KCl (3), CaCl2 (0.2), glucose (10), HEPES (10), sucrose (4.5), tetrodotoxin (TTX 3*10^-4). Glycine (1 μM) was present in all solutions: a concentration sufficient to cause around 80-85% activation of glycineB receptors. Only results from stable cells were accepted for inclusion in the final analysis, i.e., following recovery of responses to NMDA by at least 75% of their depression by the antagonists tested.
as §1

[3] = Table 7, mice, i.p., 30 min before
[4] = Table 8, mice, i.p., 95% confidence limits in parentheses
[5] = Table 7, 100 μM glutamate, 20 h, read-out: Glut. Tox. IC50
[6] = Table 9, 100 μM glutamate, read-out: Glut Tox IC50
[7] = Table 7; NMDA 200 μM with glycine 1 μM at -70 mV; read-out: Patch Clamp IC50
[8] = Table 9; NMDA-induced currents; read-out: Patch Clamp IC50

Compound	ED50 [1, 3] [mg/kg]	ED50 [1, 4] [mg/kg]	Min Lethality ([2]; mouse, in vivo, ip) [mg/kg]	IC50 (cortical neurones; [5]) [µM]	IC50 (cortical neurones; [6]) [µM]	IC50 (NMDA receptor; [7]) [µM]	IC50 (NMDA receptor; [8]) [µM]	Min Lethality ([2]; i.p., minimal lethal dose) [mg/kg]	ED50 [1] [mg/kg]	MES ED50 ([1]; Table 8, mice, i.p., 95% confidence limits in parentheses, 30 min)	IC50 (cortical neurones; 20 h, read-out: Glut. Tox. IC50) [µM]	IC50 (cortical neurones; read-out: Glut Tox IC50) [µM]	IC50 (NMDA receptor; read-out: Patch Clamp IC50; Table 7; NMDA 200 μM with glycine 1 μM at -70 mV) [µM]	IC50 (NMDA receptor; read-out: Patch Clamp IC50; Table 9; NMDA-induced currents) [µM]
C[C@@H]1CC(C)(C)C[C@@](C)(N)C1 (relative stereo) [Mrz 2/607]	22.9	22.9	50	10.1	10.1	13.8	13.8							
CCC[C@@]1(C)C[C@H](C)C[C@@](C)(N)C1 (relative stereo) [Mrz 2/618]	24	24	> 50	17.6	17.6	43.7	57.5							
CCC[C@]1(C)C[C@@H](C)C[C@@](C)(N)C1 (relative stereo) [Mrz 2/619]	44.6	44.6	> 50	30.9	30.9	60.8	60.9							
CC[C@@]1(C)C[C@H](C)C[C@@](C)(N)C1 (relative stereo) [Mrz 2/622]	21	21	50	19.3	19.3	64.8	58.2							
CC[C@]1(C)C[C@@H](C)C[C@@](C)(N)C1 (relative stereo) [Mrz 2/624]	47.2	47.2	100	2.7	2.7	31	31							
C[C@@H]1CCC[C@@](C)(N)C1 (relative stereo) [Mrz 2/625]	130	130	> 70	39.4	39.4	245	245							
CCC[C@@H]1CCC[C@@](C)(N)C1 (relative stereo) [Mrz 2/627]	43.9	43.9	60	26.6	26.6	210	150							
CCC[C@H]1CCC[C@@](C)(N)C1 (relative stereo) [Mrz 2/628]	73.2	73.2	> 60	27.3	27.3	126	126							
CC[C@@H]1CCC[C@@](C)(N)C1 (relative stereo) [Mrz 2/629]	58.5	58.5	100	> 300	> 300	219	219							
CC[C@H]1CCC[C@@](C)(N)C1 (relative stereo) [Mrz 2/630]	> 30	> 30		> 100	> 100	> 100	100	> 30						
C[C@H]1CCC[C@@](C)(N)C1 (relative stereo) [Mrz 2/631]	30	30		> 100	> 100	> 100	> 100	> 30						
CC[C@H]1CC(C)(C)C[C@@](C)(N)C1 (relative stereo) [Mrz 2/632]	11	11	> 30	10.9	11.2	6.4	6.4							
CC[C@@H]1CC(C)(C)C[C@@](C)(N)C1 (relative stereo) [Mrz 2/633]	8.78	8.78	108	5.4	6.1	13.9	13.9							
CCC[C@@H]1CC(C)(C)C[C@](C)(N)C1 (relative stereo) [Mrz 2/634]	> 30	> 30		19	19	10.8	10.8	> 30						
CCC[C@@H]1CC(C)(C)C[C@@](C)(N)C1 (relative stereo) [Mrz 2/635]	31.6	31.6	> 50	8.2	8.18	21	21							
C[C@H]1CC(C)(C)C[C@@](C)(N)C1 (relative stereo) [Mrz 2/643]	18.6	18.6	> 50	12	12	13.5	13.5							
C[C@@H]1C[C@H](C)C[C@@](C)(N)C1 [MRZ 2/680, 1,trans-3,trans-5-Trimethylcyclohexylamine hydrochloride]		34.5	> 50		35.6		43							
CN(C)C1(C)CC(C)(C)CC(C)(C)C1 [Mrz 2/642]									8.04	8.04 (5.1-12.7) mg/kg	29.3	29.3	42.5	42.5
CC(C)(N)CC1CC(C)(C)CC(C)(C)C1 [Mrz 2/645]	65.6	65.6		> 100	> 100	20.4	20.4							
